Laboratory results taken from patent US20250271418A1, “ANTICANCER DRUG ASSESSMENT METHODS AND ANTICANCER DRUG ASSESSMENT KITS” (TOPPAN HOLDINGS INC., priority 2022, published 2025).
Read-outs that look alike come from different tables or passages of the source.

Experiments:
Assay in all cases: cells
[1] = tested on: HT29, a human colorectal adenocarcinoma cell line; conditions: 72 h, read-out: Cell viability (%)
[2] = tested on: HT29, a human colorectal adenocarcinoma cell line; conditions: HT-29, 72 h, read-out: Cell viability (%)
[3] = tested on: HT29, a human colorectal adenocarcinoma cell line; conditions: 72 h, read-out: Cell viability (%); remark: listed apart in the source

SMILES: O=c1[nH]cc(F)c(=O)[nH]1 [5-FU, 5-fluorouracil]
- viability at 1 µM [1]: 100 ± 31.2%
- viability at 1 µM [2]: 99.3 ± 21%
- viability at 10 µM [2]: 75.3 ± 12.4%
- viability at 100 µM [2]: 54.3 ± 10.2%
- viability at 1000 µM [2]: 40.3 ± 8.34%
- viability at 1 µM [3]: 100 ± 13.2%
